Assay results: US20260256780A1, “COMPOSITIONS FOR INDUCING RAS GTP HYDROLYSIS AND USES THEREOF” (Revolution Medicines, Inc., priority 2023, published 2026)

Key:
[1] = target: T1, GTP-loaded KRAS proteins (residue 1-169 of KRAS4B) (Homo sapiens, UniProt P01116, G12V); experiment: RAS GTP hydrolysis rate assay (GTPase-Glo) with cyclophilin A; assay type: biochemical; conditions: bound in tri-complex with cyclophilin A; in some embodiments KRAS^G12V is the isoform used
T1 construct: recombinant KRAS proteins (residue 1-169 of KRAS4B); His6 (TEV protease-cleavable) (cleaved yes); made in house; host or cells: E. coli
Method: (§1) The rate of RAS GTP hydrolysis was assayed in the presence of various KRAS mutations. To assess GTP hydrolysis activity, recombinant KRAS proteins (residue 1-169 of KRAS4B) were expressed in E. coli and purified using a TEV protease-cleavable His6-tag and Ni^2+ affinity chromatography. The His6 tag was removed by treatment with TEV protease, and the KRAS protein was isolated by passing through a second Ni^2+ column followed by size exclusion chromatography. The purified KRAS proteins were loaded with GTP by incubation for 2 hours on ice with 2 mM GTP and 10 mM Ethylenediaminetetraacetic Acid, followed by addition of 10 mM MgCl2 and incubation on ice for 1 additional hour. The excess GTP was removed by overnight dialysis against buffer (12.5 mM HEPES, 75 mM NaCl, pH 7.5) at 4° C. The GTP-loaded KRAS protein were flash frozen in liquid nitrogen, then stored at −80° C. until use.
(§2) GTP-loaded KRAS proteins (1 μM) were combined with 25 μM of recombinant human cyclophilin A and 10 μM of compound in reaction buffer (12.5 mM HEPES, 75 mM NaCl, 1 mM MgCl2, 1 mM DTT, 1% DMSO, pH 7.5) pre-warmed to 37° C. At fixed time points, aliquots were removed and quenched by heating to 80° C. to denature the proteins, then centrifuged to pellet the protein precipitate. The supernatant was assessed for GTP levels using Promega GTPase-Glo™ according to manufacturer instructions. The levels of GTP as a function of incubation time were fit to a single phase exponential decay to determine the rate constant for hydrolysis activity.

[2] = system: GTP-loaded KRAS proteins (residue 1-169 of KRAS4B); experiment: as above; assay type: biochemical; conditions: all RAS mutants except those with mutations of the Q61 residue; 10 μM compound, 25 μM cyclophilin A, 37° C.
Method: as §1, §2

[3] = system: complexes between KRAS proteins and the RAS-binding domain (RBD) of the RAF1 kinase; experiment: Intracellular RAS-RAF complex reporter assay (nanoBRET) in U2OS cells, multiple KRAS variants; assay type: cell-based; conditions: 4 hours
Method: A cellular assay was used to measure complexes between KRAS proteins and the RAS-binding domain (RBD) of the RAF1 kinase by nanoluciferase bioluminescence energy transfer (nanoBRET™) U2OS cells were seeded at confluence in the 3 mL of DMEM supplemented with 10% fetal bovine serum and 1% penicillin/streptomycin (approximately 1 million cells per well). The following day, each well was transfected with 50 ng of a plasmid encoding N-terminal nanoluciferase-tagged KRAS4B and 2950 ng of a plasmid encoding a C-terminal HaloTag® RAF1 RBD (residues 51-149) using FuGENE HD reagent according to manufacturer instructions. The following day, each transfected cell pool was transferred to 36 wells of a white 96-well plate in media consistiting of OptiMem phenol-red free supplemented with 4% fetal bovine serum, 1% penicillin/streptomycin, and 100 nM of HaloTag® NanoBRET™ 618 Ligand. The following day, Vivazine™ nanoluciferase substrate and compounds were added at the indicated concentration. After 4 hours of incubation, the emitted light at 460 and 618 nm was measured using a PerkinElmer Envision plate reader. The luminescence intensity at 618 nm relative to 460 nm is proportional to the number of complexes between the KRAS protein and the RBD of RAF1, a surrogate measure of the levels of active KRAS.

[4] = target: T2, KRAS^WT-RAF1 RBD complex (Homo sapiens, UniProt P01116); experiment: Intracellular RAS-RAF complex reporter assay (nanoBRET) in U2OS cells, KRAS^WT; assay type: cell-based; conditions: 4 hours
T2 construct: expressed in transfected cells; host or cells: U2OS
Method: A cellular assay was used to measure complexes between KRAS proteins and the RAS-binding domain (RBD) of the RAF1 kinase by nanoluciferase bioluminescence energy transfer (nanoBRET™) U2OS cells were seeded at confluence in the 3 mL of DMEM supplemented with 10% fetal bovine serum and 1% penicillin/streptomycin (approximately 1 million cells per well). […] The following day, Vivazine™ nanoluciferase substrate and compounds were added at the indicated concentration. After 4 hours of incubation, the emitted light at 460 and 618 nm was measured using a PerkinElmer Envision plate reader. The luminescence intensity at 618 nm relative to 460 nm is proportional to the number of complexes between the KRAS protein and the RBD of RAF1, a surrogate measure of the levels of active KRAS.

CCn1c(-c2cc(N3CCN(C4CC4)CC3)cnc2[C@H](C)OC)c2c3cc(ccc31)-c1csc(n1)C[C@H](NC(=O)[C@H]1[C@@H]3COC[C@@H]31)C(=O)N1CCC[C@H](N1)C(=O)OCC(C)(C)C2 (atropisomer, axis not shown) [compound 8]
hydrolyzer class: RAS(ON) GTP hydrolysis rate relative to the intrinsic hydrolysis rate [1]: 8 (Compound E) Moderate | RAS GTP hydrolysis in various RAS mutants in the presence of compound [2]: increased hydrolysis | potency for inhibition of RAS-RAF complexes across multiple KRAS variants [3]: roughly similar potency | potency for inhibition of RAS-RAF complexes vs KRAS^WT, relative to the other KRAS variants [4]: modestly lower potency
